In patent publication US5597823A, “Tricyclic substituted hexahydrobenz [e]isoindole alpha-1 adrenergic antagonists” (priority 1995, dated 1997):
Where a name gives a salt, the structure may show the parent alone.

Target: T1, α-1A adrenoceptor (dog prostate) (Canis lupus, UniProt A0A8I3NK63)
T1 sequence (A0A8I3NK63 1-466): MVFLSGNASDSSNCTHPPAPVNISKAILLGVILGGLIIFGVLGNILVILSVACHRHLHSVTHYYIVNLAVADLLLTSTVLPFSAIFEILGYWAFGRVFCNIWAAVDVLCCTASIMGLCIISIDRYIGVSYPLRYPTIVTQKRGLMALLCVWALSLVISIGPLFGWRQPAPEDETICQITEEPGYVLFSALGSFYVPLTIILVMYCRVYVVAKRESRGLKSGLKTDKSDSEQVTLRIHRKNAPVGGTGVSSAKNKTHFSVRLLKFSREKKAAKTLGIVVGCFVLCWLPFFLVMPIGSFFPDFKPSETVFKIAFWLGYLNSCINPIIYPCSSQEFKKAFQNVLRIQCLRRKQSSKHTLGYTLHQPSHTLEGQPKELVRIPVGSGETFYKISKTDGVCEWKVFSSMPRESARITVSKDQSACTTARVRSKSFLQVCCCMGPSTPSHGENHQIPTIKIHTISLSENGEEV
Test: Functional antagonism: phenylephrine (PE)-induced contraction of canine prostate strips
Type: cell-based
Conditions: Table 2b; vs phenylephrine; Schild plot
Excerpt: Functional assays indicative of pharmacologically defined α-1 adrenoceptors were used to further characterize compounds. Inhibition of phenylephrine (PE)-induced contraction of canine prostate smooth muscle can be correlated with α-1A adrenoceptor activation. […] For each of these models, agonist dose response curves were repeated against increasing concentrations of test agent to derive a Schild plot [log ([…]) against log (molarity of test agent)] to determine the pA2.
Canine prostate strips were used in vitro as previously described (Hieble, J. P., Boyce, A. J. and Caine, M., Fed. Proc., 45:2609-2614 (1986)), to determine antagonist potencies against phenylephrine-induced contractions.

| Compound | pA2 Dog Prostate [α-1A] |
| --- | --- |
| COc1cccc2c1CC[C@H]1CN(CCn3c(=O)[nH]c4c(sc5nc(-c6ccccc6)c(-c6ccccc6)nc54)c3=O)C[C@@H]21 [Example 100, 3-[2-(cis-(3aR,9bR)-6-Methoxy-2,3,3a,4,5,9b-hexahydro-[1H]-benz[e]isoindol-1-yl)ethyl]-7,8-diphenylpyrazino[2',3':4,5]thieno[3,2-d]pyrimidine-2,4(1H,3H)-dione hydrochloride] | 6.92 |
| COc1cccc2c1[C@@H]1CN(CCCn3c(=O)[nH]c4c(sc5ccccc54)c3=O)C[C@@H]1CC2 (relative stereo) [Example 6, hydrochloride] | 6.91 |
| COc1cccc2c1CC[C@H]1CN(CCn3c(=O)[nH]c4c(sc5nc(C)cnc54)c3=O)C[C@@H]21 [Example 92, hydrochloride] | 9.1 |
| COc1cccc2c1CC[C@H]1CN(CCn3c(=O)[nH]c4c(sc5nc(C)c(C)nc54)c3=O)C[C@@H]21 [Example 103, hydrochloride] | 9.43 |
| COc1cccc2c1CC[C@H]1CN(CCn3c(=O)[nH]c4c(sc5cncnc54)c3=O)C[C@@H]21 [Example 41] | 9.03 |
| CCCCn1c(=O)n(CCN2C[C@@H]3CCc4c(OC)cccc4[C@@H]3C2)c(=O)c2sc3nccnc3c21 [Example 101, hydrochloride] | 7.31 |
| O=c1[nH]c2c(sc3ncccc32)c(=O)n1CCN1C[C@@H]2CCc3c(ccc4c3OCO4)[C@@H]2C1 (relative stereo) [Example 111, hydrochloride] | 8.00 |
| COc1cccc2c1CC[C@H]1CN(CCn3cnc4c(sc5nccnc54)c3=O)C[C@@H]21 [Example 71, 3-[2-(cis-(3.aR,9bR)-6-Methoxy-2,3 .,3a,4,5,9b-hexahydro-[1H]-benz[e]isoindol-1-yl)ethyl]-pyrazino[2',3':4,5]thieno[3,2-d]pyrimidine-4(1H,3H)-one hydrochloride] | 9.21 |
| COc1cccc2c1[C@@H]1CN(CCn3c(=O)[nH]c4c(sc5ccccc54)c3=O)C[C@H]1CC2 (relative stereo) [Example 2, 3-[2-(trans-9-Methoxy-2,3,3a4,5,9b-hexahydro-[1H]-benz[e]isoindol-1-yl)ethyl]-[1]benzothieno[3,2-d]pyrimidine-2,4(1H,3H)-dione hydrochloride] | 7.81 |
| COc1cccc2c1CC[C@H]1CN(CCn3c(=O)c4sc5nccnc5c4n(C)c3=O)C[C@@H]21 [Example 95, hydrochloride] | 9.07 |

More lines, now with the values ahead:

| pA2 Dog Prostate [α-1A] | Compound |
| --- | --- |
| 9.71 | COc1cccc2c1CC[C@H]1CN(CCn3cnc4c([nH]c5ccccc54)c3=O)C[C@@H]21 [Example 66, 3-2-((3aR,9bR)-cis-6-Methoxy-2,3,3a,4,5,9b-hexahydro-[1H]-benz[e]isoindol-1-yl)ethyl]-1H-pyrimido[5,4-b]indole-4(1H,3H)-one hydrochloride] |
| 9.15 | COc1cccc2c1CC[C@H]1CN(CCn3c(=O)[nH]c4c(sc5cccnc54)c3=O)C[C@@H]21 [Example 37, dihydrochloride] |
| 9.25 | COc1cccc2c1CC[C@H]1CN(CCn3c(=O)[nH]c4cc5[nH]cnc5cc4c3=O)C[C@@H]21 [Example 53, 7-[2-((3aR,9bR)cis-6-Methoxy-2,3,3a,4,5,9b-hexahydro,[1H]-benz[e]isoindol-1-yl)ethyl]-imidazo[4,5-g]quinazoline-6,8(1H,5H)-dione hydrochloride] |
| 9.09 | COc1cccc2c1CC[C@H]1CN(CCn3c(=O)[nH]c4c(ccc5ncccc54)c3=O)C[C@@H]21 [Example 82, 3-[2-((3aR,9bR)cis-6-Methoxy-2,3,3a,4,5,9b-hexahydro-[1H]-benz[e]isoindol-1-yl)ethyl]-pyrido[2,3-h]quinazoline-2,4(1H,3H)-dione hydrochloride] |
| 8.4 | COc1cccc2c1CC[C@H]1CN(CCn3c(=O)[nH]c4c(oc5ccccc54)c3=O)C[C@@H]21 (relative stereo) [Example 3, 3-[2-(cis-6-Methoxy-2,3,3a,4,5,9b-hexahydro-1H]-benz[e]isoindol-1-yl)ethyl]-benzofuro[3,2-d]pyrimidine-2,4(1H,3H)-dione hydrochloride] |
| 9.75 | COc1cccc2c1CC[C@H]1CN(CCn3c(=O)[nH]c4c(sc5ccncc54)c3=O)C[C@@H]21 [Example 38, 3-[2-((3aR,9bR)-cis-6-Methoxy-2,3,3a,4,5,9b-hexahydro-[1H]-benz[e]isoindol-1-yl)ethyl]1-pyrido[3',4':4,5]thieno[3,2-d]pyrimidine-2,4(1H,3H)-dione dihydrochloride] |
| 8.7 | COc1cccc2c1CC[C@H]1CN(CCn3c(=O)[nH]c4c(sc5cc([N+](=O)[O-])ccc54)c3=O)C[C@@H]21 [Example 47, 3-[2-((3aR,9bR)-cis-6-Methoxy-2,3,3a.4,5,9b-hexahydro-[1H]-benz[e]isoindol-1-yl)ethyl]-[1]-7-nitro-benzothieno[3,2-d]pyrimidine-2,4(1H,3H)-dione hydrochloride] |
| 7.92 | COc1cccc2c1CC[C@H]1CN(CCn3c(=O)[nH]c4c(sc5ncc(-c6ccccc6)nc54)c3=O)C[C@@H]21 [Example 99, hydrochloride] |
| 7.8 | COc1cccc2c1CC[C@@H]1CN(CCn3c(=O)[nH]c4c(sc5cccnc54)c3=O)C[C@H]21 [Example 78, dihydrochloride] |
| 8.32 | COc1cccc2c1CC[C@H]1CN(CCn3c(=O)[nH]c4c(sc5ccc([N+](=O)[O-])cc54)c3=O)C[C@@H]21 [Example 48, 3-[2-((3aR,9bR)-cis-6-Methoxy-2,3,3a,4,5,9b-hexahydro-[1H]-benz[e]isoindol-1-yl)ethyl]-[1]-8-nitro-benzothieno[3,2-d]pyrimidine-2,4(1H,3H)-dione hydrochloride] |
| 7.43 | COc1cccc2c1CC[C@H]1CN(CCn3c(=O)[nH]c4cc5ccccc5cc4c3=O)C[C@@H]21 (relative stereo) [Example 21, 3-[2-(cis-6-Methoxy-2,3,3a,4,5,9b-hexahydro-[1H]-benz[e]isoindol-1-yl)ethyl]-benzo[g]quinazoline-2,4(1H,3H):dione hydrochloride] |
| 8.72 | COc1cccc2c1CC[C@H]1CN(CCn3c(=O)[nH]c4c(oc5ncccc54)c3=O)C[C@@H]21 (relative stereo) [Example 27, 3-[2-(cis-6-Methoxy-2,3,3a,4,5,9b-hexahydro-[1H]-benz[e]isoindol-1-yl)ethyl]-pyrido[3',2':4,5]furo[3,2-d]pyrimidine-2,4(1H,3H)-dione hydrochloride] |
| 7.33 | COc1cccc2c1CC[C@H]1CN(CCCCn3c(=O)[nH]c4c(sc5ccccc54)c3=O)C[C@@H]21 (relative stereo) [Example 12, 3-[4-(cis-6-Methoxy-2,3,3a,4,5,9b-hexahydro-[1H]-benz[e]isoindol-1-yl)butyl]-[1]benzothieno[3,2-d]pyrimidine-2,4(1H,3H)-dione hydrochloride] |

Same assay, conditions: Table 2b; vs phenylephrine; Schild plot; hydrochloride

| pA2 Dog Prostate [α-1A] | Compound |
| --- | --- |
| 8.74 | COc1cccc2c1CC[C@H]1CN(CCn3c(=O)[nH]c4c(sc5cccc(C)c54)c3=O)C[C@@H]21 [Example 35, 3-2-((3aR,9bR)-cis-6-Methoxy-2,3,3a,4,5,9b-hexahydro-[1H]-benz[e]isoindol-1-yl)ethyl]-9-methyl[1]benzothieno[3,2-d]pyrimidine-2,4(1H,3H)-dione hydrochloride] |
